US6358695B1, “Methods of screening for agonists and antagonists of the HNEAA81 receptor” (SmithKline Beecham Corporation, priority 1997, dated 2002)
pEC50: −log10 of the molar value.

Biological target: T1, HNEAA81 (Homo sapiens, UniProt Q9BPV8)
T1 construct: expressed in transfected cells; host or cells: HEK-293 (transient co-transfection)
T1 sequence (Q9BPV8 1-333 isoform Q9BPV8-2): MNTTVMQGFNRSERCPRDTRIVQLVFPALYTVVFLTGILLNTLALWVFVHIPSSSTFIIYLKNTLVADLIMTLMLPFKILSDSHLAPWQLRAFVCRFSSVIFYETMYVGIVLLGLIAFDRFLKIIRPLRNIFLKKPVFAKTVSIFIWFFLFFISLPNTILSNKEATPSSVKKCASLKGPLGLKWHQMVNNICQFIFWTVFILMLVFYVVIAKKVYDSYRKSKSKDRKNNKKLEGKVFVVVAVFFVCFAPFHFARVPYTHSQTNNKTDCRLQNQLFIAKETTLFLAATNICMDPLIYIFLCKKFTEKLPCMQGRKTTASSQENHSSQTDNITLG
Assay: FLIPR calcium mobilisation response in HEK-293 cells transiently co-transfected with HNEAA81 and G-proteins
Format: cell-based
Conditions: for calcium mobilization response (in words): HEK-293 cells transfected with HNEAA81 and the G-proteins
Method: HEK-293 cells were transiently co-transfected with a mammalian expression plasmid encoding HNEAA81 polypeptide, along with cDNAs encoding either the promiscuous G-protein Gal6 or the chimeric G-proteins Gql5 or Gqo5and assayed on FLIPR (Fluorometric Imaging Plate Reader) for a calcium mobilisation response following addition of AP6A or AP5A or d-UDP.
A dose-dependent (EC50s ˜300 nM), calcium mobilization response was detected following addition of AP6A (response with AP5A or d-UDP not so strong) to cells transfected with HNEAA81 and the G-proteins. […] The cDNAs for both the receptor and the G-proteins had to be expressed in the HEK-293 in order to detect a functional response to these agonists.

Row | SMILES | calcium mobilization response (in words) | pEC50 (HEK-293 cells transfected with HNEAA81 and the G-proteins (Gal6 or Gql5 or Gqo5), read-out: EC50 of dose-dependent calcium mobilization response)
1 | Nc1ncnc2c1ncn2C1OC(COP(=O)(O)OP(=O)(O)OP(=O)(O)OP(=O)(O)OP(=O)(O)OP(=O)(O)OCC2OC(n3cnc4c(N)ncnc43)C(O)C2O)C(O)C1O (stereo not shown) [AP6A, di-adenosine hexaphosphate] | dose-dependent | ~6.52
2 | O=c1ccn(C2OC(COP(=O)(O)OP(=O)(O)O)CC2O)c(=O)[nH]1 (stereo not drawn) [d-UDP] | not so strong | 
3 | Nc1ncnc2c1ncn2C1OC(COP(=O)(O)OP(=O)(O)OP(=O)(O)OP(=O)(O)OP(=O)(O)OCC2OC(n3cnc4c(N)ncnc43)C(O)C2O)C(O)C1O (stereo not shown) [AP5A, di-adenosine pentaphosphate] | not so strong | 
